Test: Water-solubility of dye
Assay type: physicochemical
Settings: maximum mass of the dye in a sodium salt form that can be dissolved in 100 g of pure water at 20° C.

Row | Compound | water-solubility of the dye
1 | CCN(Cc1cccc(S(=O)(=O)[O-])c1)c1ccc(C(=C2C=CC(=[N+](CC)Cc3cccc(S(=O)(=O)[O-])c3)C=C2)c2ccccc2S(=O)(=O)[O-])cc1.[Na+].[Na+] [C.I. Acid Blue 9] | Blue 9 (40 g)
2 | C.I. Direct Red 289 | (14 g)
3 | C.I. Direct Yellow 86 | (10 g)

The next lines start with the values.

Row | water-solubility of the dye | Compound
4 | (30 g) | C.I. Direct Blue 199
5 | (21 g) | C.I. Direct Red 249

— US20170120592A1, “INK JET RECORDING METHOD AND INK JET RECORDING APPARATUS” (CANON KABUSHIKI KAISHA, priority 2015, published 2017)
